The numbers were not newly measured in patent US20100056546A1, “SULFONYLUREA INHIBITORS OF ATP-SENSITIVE POTASSIUM CHANNELS” (Auspex Pharmaceuticals, Inc., priority 2008, published 2010), which cites them from elsewhere.

The conditions of the data set: compared with glipizide; Ambrogi et al. 1972.

As for `Cc1cnc(C(=O)NCCc2ccc(S(=O)(=O)NC(=O)N[C@H]3CC[C@H](O)CC3)cc2)cn1` [trans-4-hydroxy-glipizide], the “activity relative to the parent compound” value is reported as “significantly less active”.

For the compound `Cc1cnc(C(=O)NCCc2ccc(S(=O)(=O)NC(=O)N[C@H]3CCC[C@@H](O)C3)cc2)cn1` (relative stereo) [cis-3-hydroxy-glipizide], the “activity relative to the parent compound” value is given as “significantly less active”.
